Where two headings read alike, the source gives them in different places.
Assay: Plasma and brain pharmacokinetics/toxicokinetics in rats
Type: in vivo
Details: for AUC(0-t) / Cmax / half-life / Tmax: rat, plasma; for AUC(0-t) / Cmax / half-life: po
Method: Blood samples were obtained from catheterized animals housed in Culex cages with an automated blood sampler—a robotic system designed to facilitate the sampling of whole blood from awake and freely moving rodents. At the last withdrawal timepoint (48 h after dosing), blood aliquots were manually collected from the femoral catheter. This experiment was performed by the CRO Oncodesign.
Blood was withdrawn by cardiac puncture, and the brains were harvested.
In both experiments, blood samples were centrifuged ~7 min at 1,600g (4 °C), and the plasma was collected. The brain was weighed and frozen on dry ice. Plasma and brain were stored below −70 °C until analysis.
For all studies in rats and the 91-d toxicity study in dogs, the timepoints on days 1, 28 and 91 were: before dose and 1, 3, 5, 8 and 24 h after dose. For the 28-d toxicity study in dogs, the timepoints on days 1 and 28 were: before dose and 1, 2, 4, 8, and 24 h after dose. In both species, only mean pre-dose plasma concentrations were calculated on day 14 for the 28-d study and on day 28 for the 91-d study. For the experiments in rats, blood samples for drug analysis were taken from the satellite animals used for the toxicokinetic (TK) analysis (n = 3 per sex per timepoint and per group). For experiments performed in dogs, blood samples were drawn from the cephalic or jugular veins of all animals (n = 3 per sex per group).
TK analysis was performed separately per sex on mean concentrations by a non-compartmental analysis (NCA). The linearity of exposure was evaluated by comparison of the AUC/dose and Cmax/dose ratios. Possible accumulation was evaluated from the ratio of AUC on day 28 and on day 1 for each dose level and each sex. Samples lower than the limit of quantification (LLQ) values (that is, < 8.00 ng ml^−1 in rats and <20.0 ng ml^−1 in dogs) were not included in the calculation of TK parameters.

[1] = Sprague Dawley, 1.6 mg/kg, rats po 1.6 mg/kg single
[2] = both sexes, Sprague Dawley SPF, 20 mg/kg, rats po 20 mg/kg single, 91-day tox study
[3] = both sexes, Sprague Dawley SPF, 36 mg/kg, rats po 36 mg/kg single, 28-day tox study
[4] = both sexes, Sprague Dawley SPF, 65 mg/kg, rats po 65 mg/kg single, 91-day tox study
[5] = both sexes, Sprague Dawley, 2 mg/kg, rats po 2 mg/kg single, 28-day tox study
[6] = both sexes, Sprague Dawley, 2 mg/kg, rats po 2 mg/kg single, 91-day tox study

COc1ccc(CO[C@H]2CC[C@@]3(C)C(=CC[C@H]4[C@@H]5CC[C@H](C(C)=O)[C@@]5(C)CC[C@@H]43)C2)cc1 [AEF0117, 3β-(4-methoxybenzyloxy)pregn-5-en-20-one]
AUC(0-t) [1]: 1060 ng·h/mL
Cmax [1]: 116 ng/mL
half-life (Sprague Dawley, 1.6 mg/kg, rats po 1.6 mg/kg single, read-out: t½ (converted)): 13.9 h
half-life (Sprague Dawley, rats per os, read-out: half-life): 7.3 to 15.8 h
Tmax (Sprague Dawley, rats po 1.6 mg/kg single): 4.1 h
Tmax (Sprague Dawley, rats, oral, corn oil): 3 h
AUC(0-t) (both sexes, Sprague Dawley SPF, 9 mg/kg, rats po 9 mg/kg single, 28-day tox study): 6150 ng·h/mL
half-life (both sexes, Sprague Dawley SPF, 9 mg/kg, rats po 9 mg/kg single, 28-day tox study, read-out: t½ (converted)): 11.7 h
AUC(0-t) [2]: 12700 ng·h/mL
Cmax [2]: 1060 ng/mL
half-life (both sexes, Sprague Dawley SPF, 20 mg/kg, rats po 20 mg/kg single, 91-day tox study, read-out: t½ (converted)): 7.6 h
AUC(0-t) [3]: 16500 ng·h/mL
Cmax [3]: 2060 ng/mL
half-life (both sexes, Sprague Dawley SPF, 36 mg/kg, rats po 36 mg/kg single, 28-day tox study, read-out: t½ (converted)): 9.8 h
AUC(0-t) [4]: 18200 ng·h/mL
Cmax [4]: 1660 ng/mL
half-life (both sexes, Sprague Dawley SPF, 65 mg/kg, rats po 65 mg/kg single, 91-day tox study, read-out: t½ (converted)): 10.4 h
Tmax (both sexes, Sprague Dawley SPF, rats po 9 mg/kg single, 28-day tox study): 3 h
Tmax (both sexes, Sprague Dawley SPF, rats po 20 mg/kg single, 91-day tox study): 3 h
Tmax (both sexes, Sprague Dawley SPF, rats po 36 mg/kg single, 28-day tox study): 3 h
Tmax (both sexes, Sprague Dawley SPF, rats po 65 mg/kg single, 91-day tox study): 3 h
AUC(0-t) [5]: 1450 ng·h/mL
Cmax [5]: 106 ng/mL
half-life (both sexes, Sprague Dawley, 2 mg/kg, rats po 2 mg/kg single, 28-day tox study, read-out: t½ (converted)): 8 h
AUC(0-t) [6]: 1210 ng·h/mL
Cmax [6]: 86.3 ng/mL
half-life (both sexes, Sprague Dawley, 2 mg/kg, rats po 2 mg/kg single, 91-day tox study, read-out: t½ (converted)): 7.7 h
Cmax (both sexes, Sprague Dawley, 9 mg/kg, rats po 9 mg/kg single, 28-day tox study): 578 ng/mL
Tmax (both sexes, Sprague Dawley, rats po 2 mg/kg single, 28-day tox study): 4 h
time to steady state (rats and dogs, repeated administration): approximately 14 days
